Laboratory results: patent publication US5830868A, “Substituted DI- and tripeptide inhibitors of protein: farnesyl transferase” (Warner-Lambert Company, priority 1996, dated 1998)
Numbered stars: 1 amine (or outer) side, 2 acyl side, 3 side chain; on linkers, the order of the positions; unused ones are H or OH. Square brackets hold non-standard residues; d marks the D form. Peptide text beside a SMILES is read from it. * marks the point of attachment. Bip = N[C@@H](Cc1ccc(-c2ccccc2)cc1)C(=O)O; His(τ-Me) = Cn1cnc(C[C@H](N)C(=O)O)c1; Hydrocinnamoyl = O=C(CCc1ccccc1)*; 3Pal = N[C@@H](Cc1cccnc1)C(=O)O; NHPhenethyl = c1ccc(CCN*)cc1; Cbz = O=C(OCc1ccccc1)*; CO = O=C([*:1])[*:2]; NHBn = c1ccc(CN*)cc1; Bn = c1ccc(C*)cc1

Target: T1, rat brain farnesyl protein transferase (PFT) (Rattus norvegicus, UniProt Q02293+Q04631)
T1 construct: 40-fold purified rat brain farnesyl protein transferase; from tissue; host or cells: rat brain
T1 sequence (Q02293 whole entry, one chain of several): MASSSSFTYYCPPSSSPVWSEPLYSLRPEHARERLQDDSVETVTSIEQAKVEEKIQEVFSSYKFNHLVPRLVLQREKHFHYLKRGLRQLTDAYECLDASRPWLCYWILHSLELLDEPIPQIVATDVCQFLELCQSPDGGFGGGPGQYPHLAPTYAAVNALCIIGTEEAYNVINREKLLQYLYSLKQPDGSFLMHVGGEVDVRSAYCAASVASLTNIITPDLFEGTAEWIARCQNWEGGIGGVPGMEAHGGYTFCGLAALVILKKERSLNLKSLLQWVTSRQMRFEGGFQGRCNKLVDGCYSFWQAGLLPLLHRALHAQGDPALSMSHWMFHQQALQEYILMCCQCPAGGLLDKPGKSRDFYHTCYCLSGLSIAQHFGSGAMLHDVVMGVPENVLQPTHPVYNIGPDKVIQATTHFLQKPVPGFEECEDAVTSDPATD
Test: PFT inhibitory activity assay (radiolabeled farnesyl pyrophosphate, biotinyl peptide, streptavidin beads)
Format: biochemical
Details: 40-fold purified rat brain enzyme; 0.12 μM [3H]FPP, 0.1 μM biotinyl-Ahe-Tyr-Lys-Cys-Val-Ile-Met; 37° C., 30 minutes; read-out: IC50 (μM) against PFT
Description: The PFT inhibitory activity of compounds of Formula I was assayed in 30 mM potassium phosphate buffer, pH 7.4, containing 7 mM DTT, 1.2 mM MgCl2, 0.1 mM leupeptin, 0.1 mM pepstatin and 0.2 mM phenylmethylsulfonyl fluoride. Assays were performed in 96 well plates (Wallec) and employed solutions composed of varying concentrations of a compound of Formula I in 100% DMSO. Upon addition of both substrates, radiolabeled farnesyl pyrophosphate ([1-^3 H], specific activity 15--30 Ci/mmol, final concentration 0.12 μM) and (biotinyl)-Ahe-Tyr-Lys-Cys-Val-Ile-Met peptide (final concentration 0.1 μM), the enzyme reaction was started by addition of 40-fold purified rat brain farnesyl protein transferase. After incubation at 37° C. for 30 minutes, the reaction was terminated by diluting the reaction 2.5-fold with a stop buffer containing 1.5M magnesium acetate, 0.2M H3 PO4, 0.5% BSA, and strepavidin beads (Amersham) at a concentration of 1.3 mg/mL. After allowing the plate to settle for 30 minutes at room temperature, radioactivity was quantitated on a microBeta counter (model 1450, Wallec). Compounds of Formula I show IC50 values of 0.5 nM to 80 μM (see data table) in this assay and are thus valuable inhibitors of protein: farnesyl transferase enzyme which may be used in the medical treatment of tissue proliferative diseases, including cancer and restenosis.

| Compound | IC50 [µM] |
| --- | --- |
| COC(=O)[C@H](COCc1ccccc1)NC(=O)[C@H](CCc1ccc(OCc2ccccc2)cc1)NC(=O)[C@@H](Cc1c[nH]cn1)NC(=O)OCc1ccccc1 [Example 15] | 30 |
| COC(=O)[C@H](COCc1ccccc1)NC(=O)[C@H](Cc1ccc(OCc2ccccc2)cc1)NC(=O)[C@H](Cc1c[nH]cn1)NC(=O)CCc1ccccc1 [Example 18, N-[N-[N-(1-Oxo-3-phenylpropyl)-L-histidyl]-O-(phenylmethyl)-L-tyrosyl]-O-(phenylmethyl)-L-serine. methyl ester] (Hydrocinnamoyl-His-Tyr(Bn)-Ser(Bn)-OMe) | 0.82 |
| O=C(N[C@@H](Cc1c[nH]cn1)C(=O)N[C@@H](Cc1ccc(OCc2ccccc2)cc1)C(=O)NCCc1ccccc1)OCc1ccccc1 [Example 23, N-(2-Phenylethyl)-N60-[-N-[(phenylmethoxy)carbonyl]-L-histidyl]-O-(phenylmethyl)-L-tyrosinamide] (Cbz-His-Tyr(Bn)-NHPhenethyl) | 1.9 |
| COC(=O)[C@H](Cc1cccnc1)NC(=O)[C@H](Cc1ccc(OCc2ccccc2)cc1)NC(=O)[C@H](Cc1c[nH]cn1)NC(=O)OCc1ccccc1 [Example 24, N-[N-[N-[(Phenylmethoxy)carbonyl]-L-histidyl]-O-(phenylmethyl)-L-tyrosyl]-3-(3-pyridinyl)-L-alanine, methyl ester] (Cbz-His-Tyr(Bn)-[3Pal]-OMe) | 1 |
| CN(CCOCc1ccccc1)C(=O)[C@H](Cc1ccc(OCc2ccccc2)cc1)NC(=O)[C@H](Cc1c[nH]cn1)NC(=O)OCc1ccccc1 [Example 29, Nα -[N-[(Phenylmethoxy)carbonyl]-L-histidyl]-O-(phenylmethyl)-N-methyl-N-[2-(phenylmethoxy)ethyl]-L-tyrosinamide] | 3 |
| PhCH2 CH2 NHCO--D--His--Tyr(OBn)CONHCH2 CH2 [5 (27)] | 30 |

Compounds with a lower IC50, results first:

| IC50 [µM] | Compound |
| --- | --- |
| 0.6 | COC(=O)[C@H](COCc1ccccc1)NC(=O)[C@H](Cc1ccc(-c2ccccc2)cc1)NC(=O)[C@H](Cc1c[nH]cn1)NC(=O)OCc1ccccc1 [Example 16, N-[4-Phenyl-N-[N-[(phenylmethoxy)carbonyl]-L-histidyl]-L-phenylalanyl]-O-(phenylmethyl)-L-serine, methyl ester] (Cbz-His-[Bip]-Ser(Bn)-OMe) |
| 0.37 | C[C@@](Cc1ccc(OCc2ccccc2)cc1)(NC(=O)[C@@H](Cc1c[nH]cn1)NC(=O)OCc1ccccc1)C(=O)NCCOCc1ccccc1 [Example 22] |
| 0.31 | O=C(N[C@@H](Cc1c[nH]cn1)C(=O)N[C@@H](Cc1ccc(OCc2ccccc2)cc1)C(=O)NCCOCc1ccccc1)OCc1ccccc1 [Example 19, Nα -[-N-[(Phenylmethoxy)carbonyl]-L-histidyl]-O-(phenylmethyl)-N-[2-(phenylmethoxy)ethyl]-L-tyrosinamide] |
| 0.31 | CN(C(=O)OCc1ccccc1)[C@H](Cc1c[nH]cn1)C(=O)N[C@@H](Cc1ccc(OCc2ccccc2)cc1)C(=O)NCCOCc1ccccc1 [Example 21, Nα -[N-Methyl-N[(phenylmethoxy)carbonyl]-D-histidyl]-N-[2-(phenylmethoxy)ethyl]-O-(phenylmethyl)-L-tyrosinamide] |
| 0.083 | COC(=O)[C@H](COCc1ccccc1)NC(=O)[C@H](Cc1ccc(OCc2ccccc2)cc1)NC(=O)[C@H](Cc1cn(C)cn1)NC(=O)OCc1ccccc1 [Example 13, N-[N-[1-Methyl-N-[(phenylmethoxy)carbonyl]l-L-histidyl]-O-(phenylmethyl)-L-tyrosyl]-O-(phenylmethyl)-L-serine. methyl ester] (Cbz-[His(τ-Me)]-Tyr(Bn)-Ser(Bn)-OMe) |
| 0.039 | COC(=O)[C@H](COCc1ccccc1)NC(=O)[C@H](Cc1ccc(OCc2ccccc2)cc1)NC(=O)[C@H](Cc1c[nH]cn1)NC(=O)NCc1ccccc1 [Example 17, N-[O-(Phenylmethyl)-N[N-[[(Phenylmethyl)amino]-carbonyl]-L-histidyl]-L-tyrosyl]-O-(phenylmethyl)-serine, methyl ester] ({NHBn-CO}-His-Tyr(Bn)-Ser(Bn)-OMe) |
| 0.028 | CCNC(=O)[C@H](COCc1ccccc1)NC(=O)[C@H](Cc1ccc(OCc2ccccc2)cc1)NC(=O)[C@@H](Cc1c[nH]cn1)NC(=O)OCc1ccccc1 [Example 12, N-Ethyl-Nα -[N-[N-[(Phenylmethoxy)carbonyl]-D-histidyl]-O-(phenylmethyl)-L-tyrosyl]-O-(phenylmethyl)-L-serinamide] (Cbz-[dH]-Tyr(Bn)-Ser(Bn)-NHEt) |
